pIC50: −log10 of the molar value. Values joined by “and” are separate entries in the source; they are usually repeats but may differ in a detail not shown here. Equal entries are not always repeated. Where two headings read alike, the source gives them in different places.
Experiments:
[1] = test system: HepG2 human hepatoma cells; conditions: 4 h
Protocol: Mammalian Cell Toxicity Assay
To investigate the toxicity of Compound I for mammalian cells, human hepatoma cell line HepG2 were exposed to Compound I and the (LD50) was determined. Briefly, HepG2 human hepatoma cells (American Type Culture Collection, Bethesda Md.) were plated at 1×10^5 cells/well in tissue culture treated 96 well plates and incubated at 5% CO2, 37° C. for 18 h prior to initiation of the assay. The compound stocks at 100 mM in DMSO were added to DM (defined media, media without serum with added insulin, selenium and transferrin) at an initial concentration of 1000 μM and serially diluted 1 to 3 in DM in a 96 well plate. For 20 μL of a test solution, 3.5 μL sample is added to 346.5 μL media for an initial concentration of 1000 μM. These dilutions are added to the cells at final sample concentrations between 0.5 and 1000 μM (<1% DMSO). Controls included: media only (negative control) and 0.1% Triton-X (positive control). Control drugs (tamoxifen and 2-thiouracil) were also used to verify each assay. The samples were incubated at 37° C. in humidified 5% CO2 atmosphere for 4 h.
The plate was read directly on the Tecan Spectrafluor Plus reader in the fluorescent mode at excitation 530 nm and emission 595 nm. The blank was subtracted from the total fluorescence to give the net fluorescence for that well. This total was compared to the control in the absence of the compound. An LD50 (concentration at 50% of lethal dose) is calculated as the concentration that leads to a response of 50% compared to the control cells. Thus, cytotoxicity is measured as percent of inhibition of cell viability as determined by the Alamar Blue assay.

[2] = test system: logarithmic phase C. albicans (MC295) containing HWP1-lacZ; test: microbe, parasite or virus in culture; assay type: cell-based; conditions: Candida albicans
[3] = test system: stationary phase C. albicans (MC295) containing HWP1-lacZ; test: microbe, parasite or virus in culture; assay type: cell-based, Candida albicans; conditions: Candida albicans; for pIC50: read-out: C. albicans STAT IC50, stationary phase growth invasion assay
[4] = test system: C. albicans; test: C. albicans overnight growth inhibition; assay type: cell-based, Candida albicans; design: concentration or dose not given beside the values
[5] = test system: C. albicans (MC303); test: C. albicans morphology assay (hyphae scored 1-5); conditions: scale 1-5; for C. albicans Phenotype Rating: invasion morphology phenotype, test compound at 10 μM
Protocol: In this assay, described in greater detail below, the morphology of cells was assessed and scored on a 1-5 scale. A score of 1 was assigned to non-hyphal cells, “yeast-like” cells and budding cells, and a score of 5 was assigned to cells having many, relatively long (wild-type) hyphae.
A frozen stock culture was prepared by streaking C. albicans (MC303: ura3 Δ:: imm434/ura3Δ:: imm434 arg4::hisG/arg4::hisG ade2:: URA3:.pTEF1-lacZ/ADE2 hisl::hisG/HIS1 gal1::ARG4/GAL1) cells on a YPD agar plate and grown at 30° C. for 14-18 h. An isolated colony was added to 5 mL of YPD broth and grown on a roller drum (60 rpm) for 14-18 h at 30° C. Next, 600 μL of culture were aliquotted into 1 mL of 25% glycerol, and the tubes are stored at −80° C.
Frozen MC303 C. albicans cell stock was struck for isolation of a single colony using a sterile loop on a YPD agar plate and grown at 30° C. for 14-18 h. A single colony was inoculated into 5 mL of YPD in a test tube and grown on a roller drum (60 rpm) for 2 days at 30° C. to late stationary phase (OD600˜30). For the assay, this stock was diluted to 2.5×10^5 cells/mL to make a 10× stock. Next, 10 μL of this cell stock was added to 80 μL of Inducing Media and 10 μL of 10× compound stock or DMSO in a Coming, tissue-culture treated, flat-bottom, microtiter plate. The plate was incubated at 37° C. for 24 h. Next, 10 μL of formaldehyde (37%) was added to each well and the cells were fixed for 10 min. The liquid was gently decanted from the plate and each well was examined under a microscope. Each well was photographed and observed cells are scored on a scale of 1-5. […] A 1 indicates cells are non-hyphal with only “yeast-like” cells and budding cells.
Scores of 2, 3, and 4 indicate shorter length or reduced quantity of hyphae when compared with WT (2 being very near non-hyphal and 4 being close to WT).

[6] = test system: HepG2 human hepatoma cells; conditions: cited from earlier work
[7] = test system: C. albicans; test: Mouse model of fungal invasion, kidney histology score (Compound III in diet); assay type: in vivo; conditions: mice, powdered diet supplemented from t=−24 h to t=48 h, FIG. 2
Protocol: A mouse model of fungal invasion was used to examine the in vivo efficacy of orally administered Compound III in reducing invasion by C. albicans. Briefly, one day prior to infection (t=−24 h) mice were switched to a powdered diet supplemented Compound III (treatment mice) or no supplement (control mice). This diet was continued until the mice were sacrificed at t=48 h. The kidneys of the mice were then examined for histologic signs of fungal invasion. In the scoring system used, a score of 5 indicates the presence of many, large fungus-dominated lesions, a score of 3 indicates the presence of many inflammatory lesion and fungus-dominated lesion of mixed size, and a score of 1 indicates few, mainly inflammatory lesions.

[8] = test system: C. albicans; test: Mouse model of fungal invasion, kidney lesion count (Compound II, IP and oral); assay type: in vivo; conditions: mice, 1 mg IP and oral repeated, 2×10^6 C. albicans, sacrifice about t=19 h, FIG. 1
Protocol: A mouse model of fungal invasion was used to examine the in vivo efficacy of Compound II in reducing invasion by C. albicans.
Briefly, 30 min prior to infection (t=−30 min) 1 mg of Compound II in buffer (10 treatment mice) or buffer only (10 control mice) was administered IP. At t=0 all mice were inoculated with 2×10^6 C. albicans. At t=6 h and t=14 h the IP treatment with Compound II or buffer was repeated. In addition, at t=2, t=4 h, t=10 h, and t=18 h 1 mg of Compound II or buffer only was administered orally. The mice were sacrificed at about t=19 h and the kidneys of the mice were examined for histologic signs of fungal invasion by counting the number of lesions.

[9] = read-out: C. albicans LOG IC50, logarithmic phase growth invasion assay (converted)

Structure (SMILES) | AFDD Mammalian Cytotoxicity LD50 [1] [µM] | IC50 [2, 9] [nM] | pIC50 [3] | C. albicans Overnight Growth Inhibition [4] [%] | C. albicans Phenotype Rating [5] | other results
CCCCCCc1ccc(S(=O)(=O)Nc2cc(C)on2)cc1 | 449.1 | 9.9 | 5.54 | 32.5 | 2 and 4 and 5 | –
Cc1cc(NS(=O)(=O)c2ccc(-c3ccco3)cc2)no1 | >1000 | 39 | < 4.70 | 23.9 | 4 | –
Cc1cc(NS(=O)(=O)c2ccc(CC3CCCC3)cc2)no1 | 660.9 | 79.2 | 5.35 | 0.9 | 2 and 4 and 5 | –
Cc1cc(NS(=O)(=O)c2ccc(C(C)(C)C)cc2)no1 | >1000 | 1200 | < 4.70 | −107.0 | 5 | –
Cc1cc(NS(=O)(=O)c2ccc(-c3ccc(F)cc3)cc2C)no1 | 648.5 | 1470 | < 4.70 | 1.3 | 4 | –
CCc1ccc(S(=O)(=O)Nc2cc(C)on2)cc1 | >1000 | 1610 | < 4.70 | −78.9 | 4 | –
Cc1cc(NS(=O)(=O)c2ccc(OC(F)(F)F)cc2)no1 | >1000 | 10700 | < 4.70 | 4.0 | 4 | –
O=c1cc[nH]c(=S)[nH]1 [Compound 2-thiouracil, 2-thiouracil] | – | – | – | – | – | expected LD50 of control drug [6]: > 1000 µM
Cc1cc(NS(=O)(=O)c2ccc(-c3ccc(F)cc3F)cc2)no1 [Compound III] | – | – | – | – | – | kidney histology score (severity of fungal invasion) [7]: decreases severity of fungal invasion relative to the control
CCCNc1ccc(S(=O)(=O)Nc2cc(C)on2)cc1 [Compound II] | – | – | – | – | – | number of lesions on kidneys [8]: decreases the number of lesion relative to the control
CCCCc1ccc(S(=O)(=O)Nc2cc(C)on2)cc1 [Compound I] | – | – | – | – | – | mammalian cell LD50 [1]: greater than 1000 μM; IC50 ([2]; read-out: concentration inhibiting invasion of logarithmic phase C. albicans by 50%, logarithmic phase): 4.9 ng/mL; IC50 ([3]; read-out: concentration inhibiting invasion of stationary phase C. albicans by 50%, stationary phase): 0.85 µg/mL; average morphology score ([5]; 10 μM): 1
Cc1cc(NS(=O)(=O)c2ccc(-c3cc(F)cc(F)c3)cc2)no1 [Example 1, N-(5-methyl-3-isoxazolyl)-4′-(3,5-difluorophenyl)benzensulfonamide] | – | – | – | – | – | melting point: 175 °C
CCCCc1ccc(S(=O)(=O)Nc2cc(C)on2)s1 [Example 2, 5-Butyl-N-(5-methylisoxazol-3yl)thiophene-2-sulfonamide] | – | – | – | – | – | melting point: 96.5 to 100.7 °C
